# Experimental data from patent US20250074913A1, “PYRAZOLE DERIVATIVES AS STING AGONISTS” (Hoffmann-La Roche Inc., priority 2022, published 2025).
# Test system: interferon regulatory factor (IRF) pathway in THP1-Dual™ cells
# Test: THP1-Dual reporter gene assay (Agonist_THP1_EC50)
# Type: cell-based
# Settings: Homo sapiens, 20-24 hrs compound treatment, Lucia luciferase (IRF) readout
# From the text: This is the cellular reporter assay to evaluate compounds' agonism to interferon regulatory factor (IRF) pathway in THP1-Dual™ cells (InvivoGen, cat number thpd-nfis). THP1-Dual™ cells were derived from the human THP-1 monocyte cell line by stable integration lucia luciferase gene, a new secreted luciferase reporter gene, under the control of an ISG54 (interferon-stimulated gene) minimal promoter in conjunction with five interferon (IFN)-stimulated response elements. As a result, THP1-Dual™ cells allow the study of the IRF pathway, by assessing the activity of Lucia luciferase. Lucia luciferase protein is readily measurable in the cell culture supernatant when using QUANTI-Luc™ (InvivoGen, cat: rep-qlcg-500).
# After 20-24 hrs compound treatment in THP1-Dual cells, the compounds' agonism to IRF pathway and cell toxicity were tested by measuring luminescence and OD 450 on an Envision plate reader.
# On the day of experiment, 30 μL of test medium (RPMI 1640, 2 mM L-glutamine, 25 mM HEPES, […] heat-inactivated fetal bovine serum) was dispensed in a white 384-well plate (Grenier, cat: 781098) containing the serially diluted compounds (final 1% DMSO) transferred by the Echo550 machine. Then 30 μL of cell suspension (˜33,000 cells, 1.1×10^6 cells/mL) per well was added immediately by thermo multidrop combi dispenser for incubation 20-24 h at 37° C., […]. At the end of the incubation, 10 μL of cellular supernatant was transferred to proxiplate 384-plus plate for IRF detection, and then 10 μL of QUANTI-Luc™ Gold solution was added to the plate that proceeded with the measurement immediately. To detect cell viability, 30 μL of the CCK-8 working solution (Dojindo Molecular Technologies, cat: CK04-20) was added to the cell plate, which was Incubated for 2 hrs in the incubator to measure the absorbance at 450 nm using Envision.
row,Structure (SMILES),EC50 [nM]
1,"COC(=O)c1ccc(CCn2nc(C)c(O)c2-c2n[nH]c(-n3nc(C(N)=O)c4cc(C)ncc43)n2)cc1 [Example 62, Methyl 4-[2-[5-[5-(3-carbamoyl-5-methyl-pyrazolo[3,4-c]pyridin-1-yl)-1H-1,2,4-triazol-3-yl]-4-hydroxy-3-methyl-pyrazol-1-yl]ethyl]benzoate]",44
2,"Cc1cc2c(C(N)=O)nn(-c3nc(-c4c(O)c(C)nn4CCc4ccncc4)n[nH]3)c2cn1 [Example 46, 1-[3-[4-hydroxy-5-methyl-2-[2-(4-pyridyl)ethyl]pyrazol-3-yl]-1H-1,2,4-triazol-5-yl]-5-methyl-pyrazolo[3,4-c]pyridine-3-carboxamide]",97
3,"CCn1nc(C)c(O)c1-c1nc(-c2nc(C(N)=O)cc3c2cnn3C)c(C(F)F)o1 [Example 10, 4-[5-(difluoromethyl)-2-(2-ethyl-4-hydroxy-5-methyl-pyrazol-3-yl)oxazol-4-yl]-1-methyl-pyrazolo[4,3-c]pyridine-6-carboxamide]",419
4,"CCCn1nc(C)c(O)c1-c1nc(-c2nc(C(N)=O)n3cc(C)ncc23)n(C)n1 [Example 92, 1-[5-(4-hydroxy-5-methyl-2-propyl-pyrazol-3-yl)-2-methyl-1,2,4-triazol-3-yl]-6-methyl-imidazo[1,5-a]pyrazine-3-carboxamide]",222
5,"Cc1cn2c(C(N)=O)nc(-c3nc(-c4c(O)c(C)nn4CCc4ccc(CO)cc4)n[nH]3)c2cn1 [Example 71, 1-[3-[4-hydroxy-2-[2-[4-(hydroxymethyl)phenyl]ethyl]-5-methyl-pyrazol-3-yl]-1H-1,2,4-triazol-5-yl]-6-methyl-imidazo[1,5-a]pyrazine-3-carboxamide]",15
6,"Cc1nn(CCC#N)c(-c2n[nH]c(-c3nc(C(N)=O)cc4c3cnn4C)n2)c1O [Example 25, 4-[3-[2-(2-cyanoethyl)-4-hydroxy-5-methyl-pyrazol-3-yl]-1H-1,2,4-triazol-5-yl]-1-methyl-pyrazolo[4,3-c]pyridine-6-carboxamide]",50
7,"COc1ccc(CCn2nc(C)c(O)c2-c2nc(-n3nc(C(N)=O)c4cc(C)ncc43)co2)cc1 [Example 78, 1-(2-(4-hydroxy-1-(4-methoxyphenethyl)-3-methyl-1H-pyrazol-5-yl)oxazol-4-yl)-5-methyl-1H-pyrazolo[3,4-c]pyridine-3-carboxamide]",90
8,"Cc1cc2c(C(N)=O)nn(-c3nc(-c4c(O)c(C)nn4CC4CC4)n[nH]3)c2cn1 [Example 32, 1-[3-[2-(cyclopropylmethyl)-4-hydroxy-5-methyl-pyrazol-3-yl]-1H-1,2,4-triazol-5-yl]-5-methyl-pyrazolo[3,4-c]pyridine-3-carboxamide]",36
9,"CCn1nc(C)c(O)c1-c1nc(-n2nc(C(N)=O)c3cc(C)ncc32)co1 [Example 21, 1-[2-(2-ethyl-4-hydroxy-5-methyl-pyrazol-3-yl)oxazol-4-yl]-5-methyl-pyrazolo[3,4-c]pyridine-3-carboxamide]",141
10,"COCC#CCCn1nc(C)c(O)c1-c1n[nH]c(-n2nc(C(N)=O)c3cc(C)ncc32)n1 [Example 81, 1-[3-[4-hydroxy-2-(5-methoxypent-3-ynyl)-5-methyl-pyrazol-3-yl]-1H-1,2,4-triazol-5-yl]-5-methyl-pyrazolo[3,4-c]pyridine-3-carboxamide]",65
11,"CCn1nc(C)c(O)c1-c1nc(-c2c(F)c(C(N)=O)n3cc(C)ncc23)co1 [Example 28, 8-[2-(2-ethyl-4-hydroxy-5-methyl-pyrazol-3-yl)oxazol-4-yl]-7-fluoro-3-methyl-pyrrolo[1,2-a]pyrazine-6-carboxamide]",134
12,"CCn1nc(C)c(O)c1-c1n[nH]c(-c2cc(C(N)=O)c3cc(C)ncn23)n1 [Example 20, 7-[3-(2-ethyl-4-hydroxy-5-methyl-pyrazol-3-yl)-1H-1,2,4-triazol-5-yl]-3-methyl-pyrrolo[1,2-c]pyrimidine-5-carboxamide]",283
13,"Cc1nn(CCn2nccn2)c(-c2n[nH]c(-c3nc(C(N)=O)cc4c3cnn4C)n2)c1O [Example 35, 4-[3-[4-hydroxy-5-methyl-2-[2-(triazol-2-yl)ethyl]pyrazol-3-yl]-1H-1,2,4-triazol-5-yl]-1-methyl-pyrazolo[4,3-c]pyridine-6-carboxamide]",79
14,"CCn1nc(C)c(O)c1-c1nc(-n2cc(C(N)=O)c3cc(C)ncc32)co1 [Example 29, 1-[2-(2-ethyl-4-hydroxy-5-methyl-pyrazol-3-yl)oxazol-4-yl]-5-methyl-pyrrolo[2,3-c]pyridine-3-carboxamide]",618
15,"Cc1cn2c(C(N)=O)nc(-c3nc(-c4c(O)c(C)nn4CCc4ccc(CN5CCOCC5)cc4)n[nH]3)c2cn1 [Example 87, 1-[3-[4-hydroxy-5-methyl-2-[2-[4-(morpholinomethyl)phenyl]ethyl]pyrazol-3-yl]-1H-1,2,4-triazol-5-yl]-6-methyl-imidazo[1,5-a]pyrazine-3-carboxamide]",53
16,"Cc1cc2c(C(N)=O)nn(-c3nc(-c4c(O)c(C)nn4CCc4cccnc4)n[nH]3)c2cn1 [Example 47, 1-[3-[4-hydroxy-5-methyl-2-[2-(3-pyridyl)ethyl]pyrazol-3-yl]-1H-1,2,4-triazol-5-yl]-5-methyl-pyrazolo[3,4-c]pyridine-3-carboxamide]",33
17,"CCn1nc(C)c(O)c1-c1n[nH]c(-c2nc(C(N)=O)n3cc(C)ccc23)n1 [Example 19, 1-[3-(2-ethyl-4-hydroxy-5-methyl-pyrazol-3-yl)-1H-1,2,4-triazol-5-yl]-6-methyl-imidazo[1,5-a]pyridine-3-carboxamide]",408
18,"Cc1cc2c(C(N)=O)nn(-c3nc(-c4c(O)c(C)nn4CCC(F)F)n[nH]3)c2cn1 [Example 66, 1-(3-(1-(3,3-difluoropropyl)-4-hydroxy-3-methyl-1H-pyrazol-5-yl)-1H-1,2,4-triazol-5-yl)-5-methyl-1H-pyrazolo[3,4-c]pyridine-3-carboxamide]",27
19,"CCCCn1nc(C)c(O)c1-c1n[nH]c(-n2nc(C(N)=O)c3cc(C)ncc32)n1 [Example 43, 1-[3-(2-butyl-4-hydroxy-5-methyl-pyrazol-3-yl)-1H-1,2,4-triazol-5-yl]-5-methyl-pyrazolo[3,4-c]pyridine-3-carboxamide]",15
20,"COc1cccc(CCn2nc(C)c(O)c2-c2nc(-n3nc(C(N)=O)c4cc(C)ncc43)co2)c1 [Example 75, 1-(2-(4-hydroxy-1-(3-methoxyphenethyl)-3-methyl-1H-pyrazol-5-yl)oxazol-4-yl)-5-methyl-1H-pyrazolo[3,4-c]pyridine-3-carboxamide]",49
21,"Cc1cn2c(C(N)=O)nc(-c3nc(-c4c(O)c(C)nn4CCc4nccs4)n[nH]3)c2cn1 [Example 90, 1-[3-[4-hydroxy-5-methyl-2-(2-thiazol-2-ylethyl)pyrazol-3-yl]-1H-1,2,4-triazol-5-yl]-6-methyl-imidazo[1,5-a]pyrazine-3-carboxamide]",30
22,"CC#CCCn1nc(C)c(O)c1-c1n[nH]c(-n2nc(C(N)=O)c3cc(C)ncc32)n1 [Example 51, 1-[3-(4-hydroxy-5-methyl-2-pent-3-ynyl-pyrazol-3-yl)-1H-1,2,4-triazol-5-yl]-5-methyl-pyrazolo[3,4-c]pyridine-3-carboxamide]",34
23,"Cc1cc2c(C(N)=O)nn(-c3coc(-c4c(O)c(C)nn4CCc4ccc(CN5CCOCC5)cc4)n3)c2cn1 [Example 88, 1-[2-[4-hydroxy-5-methyl-2-[2-[4-(morpholinomethyl)phenyl]ethyl]pyrazol-3-yl]oxazol-4-yl]-5-methyl-pyrazolo[3,4-c]pyridine-3-carboxamide]",179
24,"CCCn1nc(C)c(O)c1-c1nc(-c2nc(C(N)=O)n3cc(C)ncc23)co1 [Example 85, 1-[2-(4-hydroxy-5-methyl-2-propyl-pyrazol-3-yl)oxazol-4-yl]-6-methyl-imidazo[1,5-a]pyrazine-3-carboxamide]",49
25,"Cc1cc2c(C(N)=O)nn(-c3nc(-c4c(O)c(C)nn4CCc4ccccc4F)n[nH]3)c2cn1 [Example 56, 1-[3-[2-[2-(2-fluorophenyl)ethyl]-4-hydroxy-5-methyl-pyrazol-3-yl]-1H-1,2,4-triazol-5-yl]-5-methyl-pyrazolo[3,4-c]pyridine-3-carboxamide]",13
26,"Cc1nn(CCC(F)F)c(-c2n[nH]c(-c3nc(C(N)=O)cc4c3cnn4C)n2)c1O [Example 37, 4-[3-[2-(3,3-difluoropropyl)-4-hydroxy-5-methyl-pyrazol-3-yl]-1H-1,2,4-triazol-5-yl]-1-methyl-pyrazolo[4,3-c]pyridine-6-carboxamide]",14
27,"COc1ccc(CCn2nc(C)c(O)c2-c2n[nH]c(-n3nc(C(N)=O)c4cc(C)ncc43)n2)cc1 [Example 50, 1-[3-[4-hydroxy-2-[2-(4-methoxyphenyl)ethyl]-5-methyl-pyrazol-3-yl]-1H-1,2,4-triazol-5-yl]-5-methyl-pyrazolo[3,4-c]pyridine-3-carboxamide]",25
